Experimental data from article PMC12279208, “Targeted Penetrating Motif Engineering of BH3 Mimetic: Harnessing Non‐Canonical Amino Acids for Coinhibition of MCL‐1 and BCL‐xL in Acute Myeloid Leukemia” (Advanced Science, 2025).
Square brackets hold non-standard residues; d marks the D form. Peptide text beside a SMILES is read from it. Bpa = N[C@@H](Cc1ccc(C(=O)c2ccccc2)cc1)C(=O)O; Phe(4-Me) = Cc1ccc(C[C@H](N)C(=O)O)cc1; Met(O2) = CS(=O)(=O)CC[C@H](N)C(=O)O; Chg = N[C@H](C(=O)O)C1CCCCC1

What was measured:
[1] = molecular target: T1, BCL-xL (Homo sapiens, UniProt Q07817); experiment: Cell-free TR-FRET inhibition of BCL-xL binding to its peptide ligand; details: 3 h at room temperature, 0.25-1000 nM, n = 4
T1 construct: His; purchased BPS Biosciences 50223
Protocol: (§1) The inhibition of MCL-1 and BCL-xL binding to their respective ligands was quantified using time-resolved fluorescence resonance energy transfer (TR-FRET) assay kits (BPS Biosciences, Catalog Nos. 79506 and 50223). […] All samples and controls were run in quadruplicate, ensuring a final DMSO concentration below 0.1%. Selected hit compounds were tested at various concentrations: 0.25, 0.5, 1, 2, 4, 8, 16, 32, 64, 125, 500, and 1000 nM. The test assay components were prepared as follows: A 3× MCL TR-FRET assay buffer was diluted with two parts distilled water to create a 1× MCL TR-FRET assay buffer. The anti-His terbium-labeled donor and dye-labeled acceptor were diluted 200-fold in 1× MCL TR-FRET assay buffer. Each well received 5 μL of the anti-His terbium-labeled donor and dye-labeled acceptor mixture. In the negative control wells, 2 μL of inhibitor buffer and 1× MCL-1 TR-FRET assay buffer were added. For the positive control wells, 2 μL of inhibitor buffer and the MCL-1 peptide ligand were added. Subsequently, 2 μL of the diluted test inhibitor solution and the MCL-1 peptide ligand were added to the test inhibitor wells. Finally, 3 μL of diluted MCL-1 protein solution was added to each well, and the plate was incubated at room temperature for 3 hours.
(§2) TR-FRET Ratio=Emission at 665 nmEmission at 620 nm
(§3) The percent activity was calculated as follows:
(§4) Percent Activity=FRETsample-FRETnegFRETp-FRETneg×100%
(§5) where FRETsample is the sample FRET, FRETneg is the negative control FRET, and FRETp is the positive control FRET.

[2] = molecular target: T2, MCL-1 (Homo sapiens, UniProt Q07820); experiment: Cell-free TR-FRET inhibition of MCL-1 binding to its peptide ligand; details: 3 h at room temperature, 0.25-1000 nM, n = 4
T2 construct: purchased BPS Biosciences 79506
Protocol: as §1, §2, §3, §4, §5

[3] = test system: AML cells (THP-1); experiment: CCK-8 cytotoxicity for selectivity, 24 h; type: cell-based; details: Homo sapiens; THP-1, CCK-8, 24-hour incubation, n = 5
Protocol: (§6) The IC50 values of peptide drugs were determined in the experiments using the CCK-8 assay after a 24-hour incubation. The human acute leukemia cell line THP-1 was used as the leukemia cell model, while normal HSCs served as the control group. Higher SI values indicate greater selectivity of the peptide for leukemia cells over normal cells.

[4] = test system: HSCs (CD34+ hematopoietic stem cells from cord blood); experiment: CCK-8 cytotoxicity for selectivity, 24 h; type: cell-based; details: Hematopoietic stem cell; human cord blood CD34+ HSCs, CCK-8, 24-hour incubation, n = 5; read-out: HSC IC50
Protocol: as §6

[5] = test system: AML cells (THP-1) relative to HSCs; experiment: Selectivity index calculation; type: cell-based, human; details: n = 5
Protocol: The selectivity index (SI) was calculated to assess the specificity of peptide drugs toward leukemia cells relative to normal human HSCs. The SI is defined as the ratio of the IC50 value for HSCs to the IC50 value for leukemia cell lines, as shown in the following formula:
SI=IC50HSCsIC50leukemia cells
as §6

[6] = test system: THP-1 cells; experiment: Apoptosis detection, Annexin V-FITC/PI flow cytometry; type: cell-based, human; details: THP-1, Venetoclax 0.8 µM, 48 h
Protocol: (§7) Cell apoptosis was measured following the manufacturer's instructions for the Annexin V-FITC kit (Elabscience, E-CK-A211-100). 1 × 10⁵ cells were co-cultured with varying concentrations of peptides or Venetoclax in 24-well plates for 48 hours. After incubation, the cells were collected by centrifugation, washed with PBS, and incubated with Annexin V-FITC and PI staining solution for 15 minutes under light-protected conditions. Apoptosis was then identified and analyzed using a flow cytometer (Beckman CytoFLEX, USA)[18].

[7] = test system: U-937 cells; experiment: as above; type: cell-based, human; details: U-937, Venetoclax 8 µM, 48 h
Protocol: as §7

[8] = test system: THP-1 luciferase-transplanted xenografts; experiment: AML mouse model, THP-1 luciferase xenograft
Protocol: To establish the AML mouse model, the animals were intravenously (IV) injected with luciferase-transfected THP-1 cells (THP-1 luciferase; 1 × 10⁶ cells/200 μL). The mice were randomly assigned to one of five experimental groups. […] Venetoclax was formulated for oral administration in a solution comprising 60% phosal 50 propylene glycol (PG), 30% polyethylene glycol (PEG) 400, and 10% ethanol, provided by MedChemExpress[30]. Before administration, both Venetoclax and BH3 peptide stock solutions were freshly diluted to working concentrations with sterile normal saline. The mice were anesthetized and administered 200 µL of a 15 mg/mL luciferase substrate, D-luciferin potassium salt (Beyotime Biotech, ST196-500mg), intraperitoneally. The progression of AML dissemination in mice was monitored until the day of euthanasia using an in vivo optical imaging system (Tanon ABL-X6; Tanon, Shanghai, China). The results were expressed as total flux (photons/s; radiance photons) ± standard deviation (SD) in both in vivo and ex vivo studies. The extent of the leukemia burden was determined by flow cytometry of peripheral blood human CD45+ cells. During the third and fourth weeks of the study, blood was collected from the orbital sinuses of mice in each group. […] Flow cytometry was employed to ascertain the expression of hCD45 in PBMCs. […] Following the completion of the designated treatment period, five mice from each group were randomly selected and euthanized by CO₂ asphyxiation. […] The bone marrow (from the tibia and femur), spleen, and liver were minced and made into single-cell suspensions in PBS, followed by red blood cell lysis. The cells were then stained with hCD45-PE antibody and analyzed by flow cytometry.
Liver, lung, kidney, spleen, and left femur tissues were formalin-fixed and paraffin-embedded. Bone tissue was decalcified with 10% EDTA decalcification solution prior to paraffin embedding. Paraffin blocks were then sectioned at 2-4 μm thickness and mounted on microscope slides. Tissue sections were deparaffinized and rehydrated using 100% xylene and ethanol solutions of decreasing concentrations.

T1 sequence (Q07817 whole entry): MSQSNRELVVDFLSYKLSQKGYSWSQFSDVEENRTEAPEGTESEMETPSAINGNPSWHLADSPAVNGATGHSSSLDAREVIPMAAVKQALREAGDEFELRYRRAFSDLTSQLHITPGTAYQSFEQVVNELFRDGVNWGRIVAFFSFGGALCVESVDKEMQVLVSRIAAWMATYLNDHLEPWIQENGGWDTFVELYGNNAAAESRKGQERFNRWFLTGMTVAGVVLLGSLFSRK
T2 sequence (Q07820 whole entry): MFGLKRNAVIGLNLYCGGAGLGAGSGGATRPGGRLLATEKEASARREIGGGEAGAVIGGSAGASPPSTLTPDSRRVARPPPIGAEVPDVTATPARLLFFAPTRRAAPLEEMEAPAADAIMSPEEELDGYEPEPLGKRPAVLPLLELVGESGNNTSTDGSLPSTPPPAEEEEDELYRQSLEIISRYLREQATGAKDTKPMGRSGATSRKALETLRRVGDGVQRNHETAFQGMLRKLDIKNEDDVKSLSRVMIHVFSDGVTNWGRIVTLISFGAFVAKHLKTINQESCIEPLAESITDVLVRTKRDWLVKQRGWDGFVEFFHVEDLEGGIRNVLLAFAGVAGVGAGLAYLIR

Row | IC50 [1] [nM] | IC50 [2] [nM] | Compound | further results
1 | 278 | 48.9 | CC[C@H](C)[C@H](NC(=O)[C@H](CCCNC(=N)N)NC(=O)[C@H](CCCNC(=N)N)NC(=O)[C@H](CC(C)C)NC(=O)[C@H](CCC(=O)O)NC(=O)[C@H](CCC(N)=O)NC(=O)[C@H](C)NC(=O)[C@@H](NC(=O)[C@H](Cc1c[nH]c2ccccc12)NC(=O)[C@H](CCS(C)(=O)=O)NC(=O)[C@H](CCC(=O)O)NC(=O)[C@@H]1CCCN1)C1CCCCC1)C(=O)NCC(=O)N[C@@H](CC(=O)O)C(=O)N[C@@H](CCC(=O)O)C(=O)N[C@@H](Cc1ccc(C)cc1)C(=O)N[C@@H](CC(N)=O)C(=O)N[C@@H](C)C(=O)N[C@@H](Cc1ccc(O)cc1)C(=O)N[C@@H](Cc1ccc(O)cc1)C(=O)N[C@@H](C)C(N)=O [C] (H-PE[Met(O2)]W[Chg]AQELRRIGDE[Phe(4-Me)]NAYYA-NH2) | 
2 |  |  | Cc1cc2c(C(C)C)c(O)c(O)c(C=O)c2c(O)c1-c1c(C)cc2c(C(C)C)c(O)c(O)c(C=O)c2c1O [AT-101, (R)-(-)-Gossypol] | IC50 [3]: 18900 nM; IC50 [4]: 67700 nM; Selectivity index (SI) combined with Venetoclax ([5]; IC50 HSCs / IC50 THP-1, in combination with Venetoclax (concentration not given)): 3.85; Selectivity index (SI) ([5]; IC50 HSCs / IC50 leukemia cells (THP-1), single agent): 3.56
3 |  |  | CC1(C)CCC(CN2CCN(c3ccc(C(=O)NS(=O)(=O)c4ccc(NCC5CCOCC5)c([N+](=O)[O-])c4)c(Oc4cnc5[nH]ccc5c4)c3)CC2)=C(c2ccc(Cl)cc2)C1 [Venetoclax] | Apoptosis [6]: 47.3%; Apoptosis [7]: 49.3%; Average body weight at study end ([8]; 30 days, same regimens, n = 12, Vehicle ≈19 g): ≈ 20 g; Bioluminescence (tumor burden) over 30 days ([8]; Venetoclax 25 mg kg−1 p.o., TAT-I or vMIP-II-TAT-I 1.5 µmol kg−1 i.v., Combination both, every 2 days, n = 5): minimal therapeutic efficacy; Median survival ([8]; Venetoclax 25 mg kg−1 p.o., TAT-I or vMIP-II-TAT-I 1.5 µmol kg−1 i.v., Combination both, every 2 days, n = 7, Vehicle 35 days): 37 days; hCD45+ cells in PBMCs ([8]; week 3, flow cytometry, n = 5, Vehicle ≈7%): ≈ 5%
4 | 30.8 | 9.77 | CC[C@H](C)[C@H](NC(=O)[C@H](CCCNC(=N)N)NC(=O)[C@H](CCCNC(=N)N)NC(=O)[C@H](CC(C)C)NC(=O)[C@H](CCC(=O)O)NC(=O)[C@H](CCC(N)=O)NC(=O)[C@H](C)NC(=O)[C@@H](NC(=O)[C@H](Cc1c[nH]c2ccccc12)NC(=O)[C@@H](NC(=O)[C@H](CCC(=O)O)NC(=O)[C@@H]1CCCN1)[C@@H](C)CC)C1CCCCC1)C(=O)NCC(=O)N[C@@H](CC(=O)O)C(=O)N[C@@H](CCC(=O)O)C(=O)N[C@@H](Cc1ccccc1)C(=O)N[C@@H](CC(N)=O)C(=O)N[C@@H](C)C(=O)N[C@@H](Cc1ccc(O)cc1)C(=O)N[C@@H](Cc1ccc(O)cc1)C(=O)N[C@@H](C)C(N)=O [F] (H-PEIW[Chg]AQELRRIGDEFNAYYA-NH2) | 
5 | 58.5 | 25.4 | CC[C@H](C)[C@H](NC(=O)[C@H](CCCNC(=N)N)NC(=O)[C@H](CCCNC(=N)N)NC(=O)[C@H](CC(C)C)NC(=O)[C@H](CCC(=O)O)NC(=O)[C@H](CCC(N)=O)NC(=O)[C@H](C)NC(=O)[C@@H](NC(=O)[C@H](Cc1c[nH]c2ccccc12)NC(=O)[C@@H](NC(=O)[C@H](CCC(=O)O)NC(=O)[C@@H]1CCCN1)[C@@H](C)CC)C1CCCCC1)C(=O)NCC(=O)N[C@@H](CC(=O)O)C(=O)N[C@@H](CCC(=O)O)C(=O)N[C@@H](Cc1ccc(C)cc1)C(=O)N[C@@H](CC(N)=O)C(=O)N[C@@H](C)C(=O)N[C@@H](Cc1ccc(O)cc1)C(=O)N[C@@H](Cc1ccc(O)cc1)C(=O)N[C@@H](C)C(N)=O [D] (H-PEIW[Chg]AQELRRIGDE[Phe(4-Me)]NAYYA-NH2) | 

Row | Compound | IC50 [1] [nM] | IC50 [2] [nM] | further results
6 | CC[C@H](C)[C@H](NC(=O)[C@H](CCCNC(=N)N)NC(=O)[C@H](CCCNC(=N)N)NC(=O)[C@H](CC(C)C)NC(=O)[C@H](CCC(=O)O)NC(=O)[C@H](CCC(N)=O)NC(=O)[C@H](C)NC(=O)[C@@H](NC(=O)[C@H](Cc1c[nH]c2ccccc12)NC(=O)[C@H](CCS(C)(=O)=O)NC(=O)[C@H](Cc1ccc(C(=O)c2ccccc2)cc1)NC(=O)[C@@H]1CCCN1)C1CCCCC1)C(=O)NCC(=O)N[C@@H](CC(=O)O)C(=O)N[C@@H](CCC(=O)O)C(=O)N[C@@H](Cc1ccc(C)cc1)C(=O)N[C@@H](CC(N)=O)C(=O)N[C@@H](C)C(=O)N[C@@H](Cc1ccc(O)cc1)C(=O)N[C@@H](Cc1ccc(O)cc1)C(=O)N[C@@H](C)C(N)=O [B] (H-P[Bpa][Met(O2)]W[Chg]AQELRRIGDE[Phe(4-Me)]NAYYA-NH2) | 412 | 122 | 
7 | CC[C@H](C)[C@H](NC(=O)[C@H](CCCNC(=N)N)NC(=O)[C@H](CCCNC(=N)N)NC(=O)[C@H](CC(C)C)NC(=O)[C@H](CCC(=O)O)NC(=O)[C@H](CCC(N)=O)NC(=O)[C@H](C)NC(=O)[C@@H](NC(=O)[C@H](Cc1c[nH]c2ccccc12)NC(=O)[C@H](CCS(C)(=O)=O)NC(=O)[C@H](Cc1ccc(C(=O)c2ccccc2)cc1)NC(=O)[C@@H]1CCCN1)[C@@H](C)CC)C(=O)NCC(=O)N[C@@H](CC(=O)O)C(=O)N[C@@H](CCC(=O)O)C(=O)N[C@@H](Cc1ccc(C)cc1)C(=O)N[C@@H](CC(N)=O)C(=O)N[C@@H](C)C(=O)N[C@@H](Cc1ccc(O)cc1)C(=O)N[C@@H](Cc1ccc(O)cc1)C(=O)N[C@@H](C)C(N)=O [G] (H-P[Bpa][Met(O2)]WIAQELRRIGDE[Phe(4-Me)]NAYYA-NH2) | 565 | 206 | 
